Data on 2 substances can be found in US20260191933A1, “PHARMACEUTICAL COMBINATIONS AND USES THEREOF” (The University of Melbourne, priority 2022, published 2026).

The subject of test [1] is mixed CSPGs (aggrecan, neurocan, phosphacan and versican). Kind of test: CSPG-ECM binding assay, mixed CSPGs.
Description: (§1) To determine the interaction of insulin with CSPG-ECM components in vitro, flat-bottom 96-well plates were first coated with 10 μg/ml poly-L-lysine overnight, followed by a rinsing with water. A purified CSPGs mix containing neurocan, phosphacan, versican and aggrecan (CC117, Merck Millipore, MA), purified aggrecan (A1960, Merck Millipore, MA) or purified chondroitin 4-sulfate (59004, Selleck Chemicals, TX), were coated onto the 96-well plates at a concentration of 10 μg/ml for 4 h at RT, followed by a rinse with water. Insulin-FITC was incubated on plates containing ECM at concentrating ranging from 5 ng/ml-1 mg/ml for 2 h at RT and protected from light. Control wells contained either no ECM, bovine serum albumin (10 μg/ml) or poly-L-lysine alone. Wells were washed 3 times with water and imaged at 495 nm using a SPECTROstar Nano Microplate Reader (BMG Labtech, Germany). To digest CSPG-ECM or to negate CSPG-ECM negative charge. wells were incubated with either chABC (0.5 U/ml) or poly-1-arginine (10 μg/ml, P7762, Merck Millipore, MA) for 1 h at 37° C. after the ECM coating, washed 3 times with water and then incubated with insulin-FITC.
The target in another test is T1, aggrecan (Bos taurus, UniProt P13608).
T1 construct: purchased Merck Millipore A1960
Description: CSPG-ECM binding assay, aggrecan. The settings on record: plates coated with aggrecan, 2-hours.

The subject of the next test is chondroitin 4-sulfate. Description: CSPG-ECM binding assay, chondroitin 4-sulfate. The settings on record: plates coated with chondroitin 4-sulfate (C4S), 2-hours.

T1 sequence (P13608 17-2364): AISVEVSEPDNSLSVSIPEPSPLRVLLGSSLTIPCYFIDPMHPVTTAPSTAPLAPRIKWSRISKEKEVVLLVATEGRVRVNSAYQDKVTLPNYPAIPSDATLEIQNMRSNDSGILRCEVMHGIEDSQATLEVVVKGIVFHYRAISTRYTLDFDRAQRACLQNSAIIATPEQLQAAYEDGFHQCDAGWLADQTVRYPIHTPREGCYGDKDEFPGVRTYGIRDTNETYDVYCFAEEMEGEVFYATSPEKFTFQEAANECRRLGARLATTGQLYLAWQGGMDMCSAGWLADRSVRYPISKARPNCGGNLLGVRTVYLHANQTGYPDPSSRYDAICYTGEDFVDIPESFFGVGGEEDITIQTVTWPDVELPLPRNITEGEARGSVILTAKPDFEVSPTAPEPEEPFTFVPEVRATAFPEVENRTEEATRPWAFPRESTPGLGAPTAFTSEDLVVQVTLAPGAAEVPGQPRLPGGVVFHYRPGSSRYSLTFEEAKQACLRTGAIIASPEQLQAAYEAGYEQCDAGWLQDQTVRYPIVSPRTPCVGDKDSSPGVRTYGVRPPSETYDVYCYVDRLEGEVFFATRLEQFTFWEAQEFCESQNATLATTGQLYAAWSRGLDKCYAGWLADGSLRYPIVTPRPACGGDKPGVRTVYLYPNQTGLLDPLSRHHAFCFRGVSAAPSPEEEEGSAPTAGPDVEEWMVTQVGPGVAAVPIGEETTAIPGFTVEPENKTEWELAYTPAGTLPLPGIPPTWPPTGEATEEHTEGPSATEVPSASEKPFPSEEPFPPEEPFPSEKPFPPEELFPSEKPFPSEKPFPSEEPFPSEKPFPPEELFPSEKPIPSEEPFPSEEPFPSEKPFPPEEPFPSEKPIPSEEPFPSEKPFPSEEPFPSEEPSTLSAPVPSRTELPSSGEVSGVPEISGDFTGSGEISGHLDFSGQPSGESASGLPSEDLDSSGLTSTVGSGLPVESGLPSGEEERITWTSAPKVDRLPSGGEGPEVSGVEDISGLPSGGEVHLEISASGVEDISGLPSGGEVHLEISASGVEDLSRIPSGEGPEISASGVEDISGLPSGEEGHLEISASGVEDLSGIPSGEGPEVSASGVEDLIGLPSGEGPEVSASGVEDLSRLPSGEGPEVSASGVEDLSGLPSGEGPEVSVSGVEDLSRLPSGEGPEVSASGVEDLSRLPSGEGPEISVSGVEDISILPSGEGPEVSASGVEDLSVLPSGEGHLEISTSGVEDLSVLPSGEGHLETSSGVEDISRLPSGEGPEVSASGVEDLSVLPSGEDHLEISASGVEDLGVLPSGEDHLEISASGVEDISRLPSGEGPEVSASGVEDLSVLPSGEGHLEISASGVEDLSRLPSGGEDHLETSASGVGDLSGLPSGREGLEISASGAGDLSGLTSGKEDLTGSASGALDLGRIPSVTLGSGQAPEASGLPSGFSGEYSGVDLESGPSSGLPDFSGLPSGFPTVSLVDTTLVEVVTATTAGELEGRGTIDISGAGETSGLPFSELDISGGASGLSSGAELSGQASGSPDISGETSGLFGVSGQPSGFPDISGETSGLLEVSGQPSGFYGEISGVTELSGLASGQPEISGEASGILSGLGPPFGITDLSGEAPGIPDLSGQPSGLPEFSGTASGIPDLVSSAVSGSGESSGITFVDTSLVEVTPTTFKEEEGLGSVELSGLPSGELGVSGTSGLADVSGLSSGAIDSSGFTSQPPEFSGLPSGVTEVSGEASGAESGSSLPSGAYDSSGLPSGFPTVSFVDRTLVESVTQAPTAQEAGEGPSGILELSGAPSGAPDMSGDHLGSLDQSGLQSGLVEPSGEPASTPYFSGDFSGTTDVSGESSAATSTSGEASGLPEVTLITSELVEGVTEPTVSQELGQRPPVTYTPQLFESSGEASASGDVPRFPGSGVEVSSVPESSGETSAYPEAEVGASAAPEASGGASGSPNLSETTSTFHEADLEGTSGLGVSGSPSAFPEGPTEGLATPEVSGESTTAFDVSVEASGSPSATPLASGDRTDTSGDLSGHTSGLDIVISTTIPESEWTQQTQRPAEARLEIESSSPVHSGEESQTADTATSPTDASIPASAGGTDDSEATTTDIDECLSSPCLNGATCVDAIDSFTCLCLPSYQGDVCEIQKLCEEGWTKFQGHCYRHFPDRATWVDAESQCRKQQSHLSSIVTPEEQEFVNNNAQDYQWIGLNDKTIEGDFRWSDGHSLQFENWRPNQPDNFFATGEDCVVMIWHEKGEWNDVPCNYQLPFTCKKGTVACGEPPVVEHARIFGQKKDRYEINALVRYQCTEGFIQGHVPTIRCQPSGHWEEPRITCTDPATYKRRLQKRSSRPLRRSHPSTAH
Description for chondroitin 4-sulfate: as §1

With “insulin-FITC: fluorescein isothiocyanate tagged insulin”, the “binding of insulin-FITC” value in test [1] (plates coated with mixed CSPGs, 2-hours) is given as “specific dose-dependent binding”; with aggrecan, “specific dose-dependent binding”; in the test with chondroitin 4-sulfate, “specific dose-dependent binding”.

On to poly-arginine, for which the insulin-ECM interactions entry in test [1] (CSPG mix, in the presence of poly-arginine) is on record as “significantly reduced”.
